Consider 16 compounds from US9499493B2, “2,4-pyrimidinediamine compounds and their uses” (Rigel Pharmaceuticals, Inc., priority 2002, dated 2016).

The structures appear in SMILES notation. Some results are limits rather than exact numbers.

Holding throughout (assay type): cell-based
Test [1] concerns FcγRI-mediated degranulation. Briefly: FcγRI receptor-mediated degranulation (activation with anti-human IgG Fab fragment). To be noted: cells not primed with IgE, activated with rabbit anti-human IgG Fab fragment.
Test [2] relates to cultured human mast cells (CHMC). Briefly: CHMC low cell density ionomycin activation: tryptase assay.
A further test has as its system Jurkat cells. Briefly: Jurkat (T-cell) toxicity, light scatter. The settings on record: 18-24 hr incubation; read-out: Toxicity Jurkat Light Scat. The procedure: Dilute Jurkat cells to 2×10^5 cells/ml in complete RPMI (10% heat-inactivated fetal bovine serum) media and incubate at 37° C., 5% CO2 for 18 hours. Add 65 ul cells at 7.7×10^5 cells/ml to a 96-well V-bottom plate (TC-treated, Costar) containing 65 ul 2× compound (final vehicle concentration is 0.5% DMSO, 1.5% MeOH). Mix, incubate plates for 18-24 hr at 37° C., 5% CO2. Toxicity was assessed by flow cytometric analysis of cellular light scatter

For the next test, the system named is B-cell line BJAB. The test is described as follows: BJAB (B-cell) toxicity, light scatter. To be noted: read-out: Toxicity BJAB Light Scat. On the procedure: The B-cell line BJAB was cultured in log phase in RPMI1640+10% heat-inactivated fetal bovine serum, 1× L-glutamine, 1× penicillin, 1× […] and 1× beta-mercaptoethanol at 37° C., 5% CO2. First, BJABs were harvested, spun and resuspended in culture medium to a concentration of 7.7×10^5 cells/mL. 65 uL cells were mixed with 65 uL compound, in duplicate and in the presence of 0.1% DMSO in a V-bottomed 96-well tissue culture plate. Cells were incubated with compound at various dilutions at 37° C., 5% CO2. Toxicity was assessed by flow cytometric analysis of cellular light scatter.

Test [3] concerns cultured human mast cells (CHMC). The test is described as follows: CHMC low cell density IgE activation: tryptase assay. The settings on record: anti-IgE. The gist of the method:
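Low-density CHMC assay: donor-adjusted 1000-1500 cells/well, MT buffer, 1 hr 37° C preincubation; anti-IgE stimulus 30 min 37° C versus MT-only controls; supernatant tryptase by substrate, 30 min RT.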

For test [4] the test system is unchanged. The test is described as follows: CHMC low cell density IgE activation: LTC4 assay. To be noted: anti-IgE. On the procedure:
Pellet CHMC cells (980 rpm, 10 min) and resuspend in pre-warmed MT. Add 65 ul of cells to each 96-well plate. Depending on the degranulation activity for each particular CHMC donor, load 1000-1500 cells/well. Mix four times followed by a 1 hr incubation at 37° C. […] Stimulate cells by adding 25 ul of 6× anti-IgE solution to the appropriate plates. Add 25 ul MT to un-stimulated control wells. Mix twice following addition of the anti-IgE. Incubate at 37° C. for 30 minutes. […] Spin plates at 1000 rpm for 10 min to pellet cells. Transfer 25 ul of supernatant to a 96-well black bottom plate and add 100 ul of freshly diluted tryptase substrate solution to each well. Incubate plates at room temperature for 30 min.
Leukotriene C4 (LTC4) is also quantified using an ELISA kit on appropriately diluted supernatant samples (determined empirically for each donor cell population so that the sample measurement falls within the standard curve) following the supplier's instructions.

For test [5] the test system is unchanged. Briefly: CHMC high cell density IgE activation: TNFalpha. The settings on record: anti-IgE activation; read-out: CHMC high density TNF-alpha. The procedure:
(§1) Inhibition of degranulation was measured at both low and high cell density by quantifying the release of the granule specific factors tryptase, histamine and hexosaminidase. Inhibition of release and/or synthesis of lipid mediators was assessed by measuring the release of leukotriene LTC4 and inhibition of release and/or synthesis of cytokines was monitored by quantifying TNF-α, IL-6 and IL-13. Tryptase and hexosaminidase were quantified using fluorogenic substrates as described in their respective examples. […] The protocols of the various assays are provided below.
(§2) After sensitizing, cells are counted, pelleted (1000 rpm, 5-10 minutes), and resuspended at 1-2×10^6 cells/ml in MT buffer. Add 100 ul of cell suspension to each well and 100 ul of compound dilutions. The final vehicle concentration is 0.5% DMSO. Incubate at 37° C. (5% CO2) for 1 hour. After 1 hour of compound treatment, stimulate cells with 6× anti-IgE. Mix wells with the cells and allow plates to incubate at 37° C. (5% CO2) for one hour. After 1 hour incubation, pellet cells (10 minutes, 1000 RPM) and collect 200 ul per well of the supernatant, being careful not to disturb pellet. Place the supernatant plate on ice. During the 7-hour step (see next) perform tryptase assay on supernatant that had been diluted 1:500. Resuspend cell pellet in 240 ul of CM media containing 0.5% DMSO and corresponding concentration of compound. Incubate CHMC cells for 7 hours at 37° C. (5% CO2). After incubation, pellet cells (1000 RPM, 10 minutes) and collect 225 ul per well and place in −80° C. until ready to perform ELISAS. ELISAS are performed on appropriately diluted samples (determined empirically for each donor cell population so that the sample measurement falls within the standard curve) following the supplier's instructions.

Test [6] shares this test system. Briefly: CHMC high cell density IgE activation: LTC4. The settings on record: anti-IgE activation. On the procedure:
as §1, §2

Test [7] shares this test system. The test is described as follows: CHMC high cell density IgE activation: tryptase. To be noted: anti-IgE activation. The procedure:
as §2

Test [8] has the same test system. The test is described as follows: CHMC high cell density IgE activation: hexos (hexosaminidase) release. To be noted: anti-IgE activation. The procedure:
as §1, §2

Test [9] shares this test system. Briefly: CHMC high cell density IgE activation: histamine. The settings on record: anti-IgE activation. On the procedure:
as §1, §2

On to `CNC(=O)COc1cccc(Nc2ncc(F)c(Nc3ccc(OC(F)(F)F)c(Cl)c3)n2)c1` [R920410, N4-(3-Chloro-4-trifluoromethoxyphenyl)-5-fluoro-N2-[3-(N-methylamino)carbonylmethyleneoxyphenyl]-2,4-pyrimidinediamine], for which the “FcγRI-mediated degranulation (in words)” value in test [1] was “inhibit FcγRI-mediated degranulation”. In test [2], this compound yielded an IC50 greater than 10 µM.
With `CCOC(=O)COc1ccc(Nc2ncc(C#N)c(Nc3ccc(OCC(=O)OCC)cc3)n2)cc1` [R925775, N2,N4-Bis[4-(ethoxycarbonylmethyleneoxy)phenyl]-5-cyano-2,4-pyrimidinediamine], the IC50 (with Jurkat cells; in the test with B-cell line BJAB; in test [2]) was greater than 10 µM in each case.
Take `CCOC(=O)COc1ccc(Nc2ncc(Br)c(Nc3ccc(OCC(=O)OCC)cc3)n2)cc1` [R925779, N2,N4-Bis[4-(ethoxycarbonylmethyleneoxy)phenyl]-5-bromo-2,4-pyrimidinediamine]: the IC50 with Jurkat cells is greater than 10 µM; in test [3], 265 nM; in the test with B-cell line BJAB, greater than 10 µM; in test [4], 190 nM; in test [2] it was greater than 10 µM.
In the case of `COC(=O)COc1ccc(Nc2ncc(F)c(Nc3ccc(OCC(=O)OC)cc3)n2)cc1` [R926240, N2,N4-Bis[(4-methoxycarbonylmethyleneoxy)phenyl]-5-fluoro-2,4-pyrimidinediamine], the IC50 in the test on Jurkat cells is 10 µM; in [3], 381 nM; in the test with B-cell line BJAB, greater than 10 µM; in test [4], 145 nM; in test [2], 1.7 µM.
Regarding `CCOC(=O)c1cnc(Nc2ccc(OCC(=O)OC)cc2)nc1Nc1ccc(OCC(=O)OC)cc1` [R926253, N2,N4-Bis(4-methoxycarbonylmethyleneoxyphenyl)-5-ethoxycarbonyl-2,4-pyrimidinediamine], the IC50 was greater than 10 µM in the test with Jurkat cells, 800 nM in test [3], greater than 10 µM in the test on B-cell line BJAB and 675 nM in [4].
For the compound `COC(=O)COc1ccc(Nc2ccnc(Nc3ccc(OCC(=O)OC)cc3)n2)cc1` [R926256, N2,N4-Bis[(4-methoxycarbonylmethyleneoxy)phenyl]-2,4-pyrimidinediamine], the IC50 with Jurkat cells is greater than 10 µM; in [3] it was 275 nM; with B-cell line BJAB, greater than 10 µM; in test [4] it was 230 nM; in test [2] it was 5.1 µM.
On to `COC(=O)COc1ccc(Nc2ncc(C)c(Nc3ccc(OCC(=O)OC)cc3)n2)cc1` [R926258, N2,N4-Bis(4-methoxycarbonylmethyleneoxyphenyl)-5-methyl-2,4-pyrimidinediamine], for which the IC50 in the test on Jurkat cells was greater than 10 µM; in test [3], 900 nM; in the test with B-cell line BJAB, greater than 10 µM; in test [4], 590 nM; in test [2], greater than 10 µM.
As for `CCOC(=O)COc1ccc(Nc2ncc(F)c(Nc3cccc(O)c3)n2)cc1` [R926395, N2-(4-Ethoxycarbonylmethyleneoxyphenyl)-5-fluoro-N4-(3-hydroxyphenyl)-2,4-pyrimidinediamine], the IC50 with Jurkat cells was greater than 10 µM; in test [3], 875 nM; in the test on B-cell line BJAB it was greater than 10 µM; in test [4], 290 nM; in test [2], 6.4 µM.
`CCOC(=O)COc1ccc(Nc2ncc(Br)c(Nc3cccc(O)c3)n2)cc1` [R926396, 5-Bromo-N2-(4-ethoxycarbonylmethyleneoxyphenyl)-N4-(3-hydroxyphenyl)-2,4-pyrimidinediamine]: the IC50 in the test on Jurkat cells is greater than 10 µM; in test [3], 700 nM; in the test with B-cell line BJAB it was greater than 10 µM; in test [4] it was 160 nM; in test [2], 2.6 µM.
Consider `COC(=O)COc1ccc(Nc2cc(Cl)nc(Nc3ccc(OCC(=O)OC)cc3)n2)cc1` [R926411, N2,N4-Bis(4-methoxycarbonylmethyleneoxyphenyl)-6-chloro-2,4-pyrimidinediamine], for which the IC50 was 8.5 µM with Jurkat cells, 690 nM in test [3], greater than 10 µM in the test on B-cell line BJAB and 2.5 µM in test [2].
With `Fc1cnc(Nc2cccc(OCCN3CCOCC3)c2)nc1Nc1ccc2c(c1)OCCO2` [R926486, N4-(3,4-Ethylenedioxyphenyl)-5-fluoro-N2-[3-[2-(N-morpholino)ethyleneoxy]phenyl]-2,4-pyrimidinediamine], the IC50 in test [5] turned out to be 455 nM; in [3], 647 nM; in test [2] it was 7.4 µM.
As for `COC(=O)c1cc2cc(Nc3ncc(F)c(Nc4ccc5[nH]c(C(=O)OC)cc5c4)n3)ccc2[nH]1` [R926593], the IC50 in test [3] (Homo sapiens, Mast cell) turned out to be 680 nM; in test [4] (Homo sapiens, Mast cell), 495 nM; in test [2] (Homo sapiens, Mast cell), 8.3 µM.
`CC(C)Oc1ccc(Nc2nc(Nc3ccc4oc(C(=O)N5CCCC5)cc4c3)ncc2F)cc1` [R926703, 5-Fluoro-N4-(4-isopropoxyphenyl)-N2-[2-(N-pyrrolidino)carbonylbenzofuran-5-yl]-2,4-pyrimidinediamine]: the IC50 in [6] is 0.724 µM; in test [7], 1950 nM; in [8], 1510 nM; in test [5], greater than 2000 nM; in [3], 525 nM; in [2], greater than 10 µM. Also, the IC50 in [9] is greater than 2000 nM.
Turning to `O=C1Nc2cc(Nc3ncc(F)c(Nc4ccc5c(c4)NC(=O)C(F)(F)O5)n3)ccc2OC1(F)F` [R940352, N2,N4-[(2,2-Difluoro-4H-benzo[1,4]oxazin-3-one)-6-yl]-5-fluoro-2,4-pyrimidinediamine], in test [1], the “FcγRI-mediated degranulation (in words)” value is “inhibit FcγRI-mediated degranulation”. Moreover, the IC50 is 101 nM in test [3] and greater than 10 µM in test [2].
For the compound `Fc1cnc(Nc2ccc(OCc3nnn[nH]3)cc2)nc1Nc1ccc(OCc2nnn[nH]2)cc1` [R945033, N2,N4-Bis[4-(1H-1,2,3,4-tetrazol-5-yl)methyleneoxyphenyl]-5-fluoro-2,4-pyrimidinediamine], the IC50 in [6] was 5.98 µM; in test [7], 8870 nM; in test [8] it was 8150 nM; in test [3], greater than 10000 nM; in test [2], greater than 10 µM; in test [9], greater than 10000 nM.
Regarding `Cc1nc(COc2cccc(Nc3ncc(F)c(Nc4ccc5c(c4)OCCO5)n3)c2)no1` [R945128, N4-(3,4-Ethylenedioxyphenyl)-5-fluoro-N2-[3-(5-methyl-1,2,4-oxadiazol-3-yl)methyleneoxyphenyl]-2,4-pyrimidinediamine], the IC50 in test [7] is 1750 nM; in test [8], 1280 nM; in test [5], greater than 2000 nM; in test [2] it was 8.8 µM; in test [9], 547 nM.
